Results on two compounds are retold here after patent US10017765B2, “Inhibitors of CACNA1A/ALPHA1A subunit internal ribosomal entry site (IRES) and methods of treating spinocerebellar ataxia type 6” (THE UNIVERSITY OF CHICAGO, priority 2013, dated 2018).

“Also recorded” adds a separate entry of the source.

One experiment relates to CACNA1 A IRES pRCTF. The experiment in a line: Preliminary screening, pRCTF R-Luc/F-Luc bicistronic reporter in HEK293 cells. It counts as cell-based, human.
For a further experiment, the system named is PC12 cells. Briefly: NGF-induced neurite outgrowth of transfected PC12 cells. It counts as cell-based, rat. The following applies: NGF treatment.

For `COc1ccc(C[C@H]2NC[C@H](O)[C@H]2OC(C)=O)cc1` [anisomycin], the “activity of CACNA1A IRES pRCTF” value in the experiment on CACNA1 A IRES pRCTF is “has the potential to inhibit”.
For the compound ω-agatoxin, the α1AWT-induced neurite outgrowth result in the experiment with PC12 cells (PC12 cells expressing full-length α1AWT-FLAG) is reported as “could not be blocked; also recorded: did not block”. The “α1ACTWT-induced (enhanced) neurite outgrowth” value in the experiment with PC12 cells (PC12 cells transfected with α1ACTWT-FLAG) is listed as “no effect”.
